EC50 data for three compounds are collected here from US20130204033A1, “ANTIPROLIFERATIVE COMPOUNDS, CONJUGATES THEREOF, METHODS THEREFOR, AND USES THEREOF” (Medarex, Inc., priority 2009, published 2013).

Where two headings read alike, the source gives them in different places.

Holding throughout (type): cell-based, human
One assay concerns OVCAR3. As to the kind of experiment: ATP luminescence proliferation assay, OVCAR3. As to conditions: Homo sapiens, OVCAR-3, 72 h, read-out: EC50 OVCAR3 (72 h), ATP luminescence, OVCAR3, 72 h incubation. The method, then: (§1) This example generally describes the procedures used to assay the antiproliferative activity of compounds of this invention or their conjugates. Human tumor cell lines were obtained from the American Type Culture Collection (ATCC), P.O. Box 1549, Manassas, Va. 20108, USA, and cultured according to instruction from the ATCC. Cells were seeded at 1.0×10^3 or 1.0×10^4 cells/well in 96-well plates for 3 h for ATP assays or ^3H thymidine assays, respectively. 1:3 serial dilutions of free (unconjugated) compounds or their conjugates were added to the wells. Plates were allowed to incubate for 24 to 72 h. The ^3H thymidine plates were pulsed with 1.0 μCi of ^3H-thymidine per well for the last 24 hours of the total incubation period, harvested, and read on a Top Count Scintillation Counter (Packard Instruments, Meriden, Conn.). ATP levels in the ATP plates were measured using the […]-GLO® Luminescent Cell Viability kit following the manufacturer's manual and read on a GLOMAX® 20/20 luminometer (both from Promega, Madison, Wis., USA). The EC50 values—the concentration at which an agent inhibits or reduces cell proliferation by 50% —were determined using PRISM™ software, version 4.0 (GraphPad Software, La Jolla, Calif., USA).
(§2) Using the ^3H thymidine or the ATP luminescence assay, or both, the activities of compounds of this invention were assayed against the following cancer cell lines: HCT-15 (colorectal cancer, multi-drug resistant (MDR)); Hep3B (liver cancer); LNCaP (prostate cancer, androgen receptor positive (AR^+)); MDA-MB-231 (breast cancer, estrogen receptor, progesterone receptor, and Her2 negative (triple negative)); A2058 (melanoma); U-87 MG (glioblastoma); NCI-H460 (NSCLC); A549 (NSCLC); HPAC (pancreatic cancer, primary); PC3 (prostate cancer, AR); BT474 (breast cancer, Her2 highly positive (Her2hi)); SKOV3 (ovarian cancer, Her2hi); 786-O (renal cancer); UO-31 (renal cancer, MDR); NCI-H740 (SCLC); DMS53 (SCLC); SK-BR3 (breast cancer, Her2hi); ZR-75 (breast cancer, estrogen receptor positive); OVCAR3 (ovarian cancer); HL-60 (APL); OVCAR8/Adr (ovarian cancer, MDR); CEM-Cl (ALL); Nomo-1 (AML); RPMI-8226 (MM)); Raji (lymphoma); SW-480 (colorectal cancer, metastatic); SW-620 (colorectal cancer); and H226 (lung cancer). (Not all compounds were assayed against all cell lines.)
(§3) Table 3 provides the data for the ATP luminescence proliferation assays, with an incubation period of 48, 72, or 96 h, as noted.

In the next assay the test system is 786-O. As to the kind of experiment: ATP luminescence proliferation assay, 786-O. As to conditions: Homo sapiens. The method, then:
as §1, §2
(§4) FIGS. 12a and 12b show illustrative plots for ATP luminescence proliferation assays for a second set of compounds of this invention, against HL-60 and 786-O cells, respectively, with an incubation period of 72 h. FIGS. 12c and 12d show the plots for ^3H thymidine proliferation assays for the same set of compounds, again against HL-60 and 786-O cells, respectively, with a 72 h incubation period. In each instance, doxorubicin was used as a comparative compound.
as §3

For another assay, the system named is H226. The assay is described as follows: ATP luminescence proliferation assay, H226. As to conditions: Homo sapiens, NCI-H226, 72 h incubation period, read-out: EC50 against the H226 cell line. As for the experimental part:
as §1, with “The EC50 values—the concentration at which an agent inhibits or reduces cell proliferation by 50% —were determined using PRISM™ software, version 4.0 (GraphPad Software, La Jolla, Calif., USA).” left out
as §2, with “(Not all compounds were assayed against all cell lines.)” left out

Another assay relates to HL-60. As to the kind of experiment: ATP luminescence proliferation assay, HL-60. As to conditions: Homo sapiens, HL-60, 48 h, read-out: EC50 HL-60 (48 h), ATP luminescence, HL-60, 48 h incubation. The method, then: as §1, §2, §4, §3
A further assay relates to OVCAR8/Adr. As to the kind of experiment: ATP luminescence proliferation assay, OVCAR8/Adr. As to conditions: Homo sapiens, OVCAR-8, 48 h incubation period, read-out: EC50 against the OVACAR8/Adr cell line. As for the experimental part: as §1, §2, §3
Assay [1] has as its system 786-O renal cancer cells, which are CD70 positive. The assay is described as follows: In vitro activity of conjugates, 3H thymidine proliferation assay, 786-O. As to conditions: 72 h incubation. As for the experimental part: as §1
The incubation period was 72 h. The EC50 values extracted from the curves of FIG. 13 are given in Table 4, along data from other experiments. […]

With `CCCN(C(=O)[C@@H](NC(=O)[C@H]1CCCCN1C)[C@@H](C)CC)[C@H](C[C@@H](OC(C)=O)c1nc(C(=O)N[C@@H](Cc2ccccc2)C(=O)OC)cs1)C(C)C` [Compound 109], the EC50 is 0.202 nM in the assay on OVCAR3; 1.03 nM with 786-O (786-0, 48 h, read-out: EC50 786-O (48 h), ATP luminescence, 786-O, 48 h incubation); 1.61 nM in the assay with H226; 0.019 nM with HL-60; 24.9 nM in the assay with OVCAR8/Adr.
For the compound `CCCN(C(=O)[C@@H](NC(=O)[C@H]1CCCCN1C)[C@@H](C)CC)[C@H](C[C@@H](OC(C)=O)c1nc(C(=O)N[C@@H](Cc2ccc(N)cc2)CC(C)C(=O)OCC)cs1)C(C)C` (some centres unmarked) [Compound 112], the EC50 in the assay on OVCAR3 is 0.049 nM; with 786-O (786-0, 72 h, read-out: EC50 786-O (72 h), ATP luminescence, 786-O, 72 h incubation), 0.67 nM; in the assay with H226, 0.67 to 1.16 nM; in the assay on HL-60 it was 0.05 to 0.09 nM; in the assay with OVCAR8/Adr, 12 nM.
diphtheria toxin [DTX]: the EC50 in assay [1] stood at 104 nM.
